Assay results reported in ChEMBL document CHEMBL3779831, “Nitric Oxide Inhibitory Dimeric Sesquiterpenoids from Artemisia rupestris” (J Nat Prod, 2016).

Assays:
[1] = Cytotoxicity against […] cells assessed as cell viability by MTT assay relative to control; type: cell-based, BV-2; set-up: concentration or dose not given beside the values; conditions: Mus musculus, read-out: Activity
[2] = system: BV-2; test: Inhibition of LPS-induced nitric oxide production in […] cells after 24 hrs by Griess assay; type: functional, cell-based; conditions: Mus musculus, BV-2, 24 h

Row | SMILES | IC50 [2] [µM] | viability [1] [%]
1 | C=C(C(=O)O)[C@@H]1CC[C@H](C)C2=C(C1)[C@]1(C)C[C@H]2C[C@@]1(C(=O)O)[C@@H]1CC[C@H](C)[C@@H]2CC(=O)C(C)=C2C1 | 32.7 | 90.7
2 | O=c1c(O)c(-c2ccc(O)c(O)c2)oc2cc(O)cc(O)c12 [QUERCETIN] | 8.7 | 99.5
3 | C=C(C(=O)O)[C@@H]1CC[C@H](C)C23C[C@]4(C(=O)O[C@]56C[C@H]4CC[C@H](C)[C@@H]5CC[C@]6(C)O)[C@@H](C(C)=C2C1)[C@@H]3O | 71.8 | 91.8
4 | C=C(C(=O)O)[C@@H]1CC[C@H](C)C2=C(C1)[C@@]1(C)C[C@@H]2[C@](C(=O)O)([C@@H]2CC[C@H](C)[C@@H]3CC(=O)C(C)=C3C2)C1 | 38.6 | 90.7
5 | C=C(C(=O)O)[C@@H]1CC[C@]2(C)[C@@H](C1)C(C)=C[C@@H](OC(=O)C(=C)[C@@H]1CC[C@H](C)[C@@H]3CC(=O)C(C)=C3C1)[C@@H]2O | 33 | 96.7
6 | C=C(C(=O)O)[C@@H]1CC[C@]2(C)[C@@H](C1)C(C)=C[C@H]1[C@@H]2C[C@]1(C(=O)O)[C@@H]1CC[C@H](C)[C@@H]2CC(=O)C(C)=C2C1 | 39.8 | 91.1
7 | C=C(C(=O)O)[C@@H]1CC[C@@]2(C)C[C@@H](OC(=O)C(=C)[C@@H]3CC[C@H](C)[C@@H]4CC(=O)C(C)=C4C3)C[C@@](C)(O)[C@@H]2C1 | 40.6 | 97.2
8 | C=C(C(=O)O)[C@@H]1CC[C@H](C)C2=C[C@@H]3[C@@]4(CC2(C1)[C@@]3(C)O)C(=O)O[C@]12C[C@H]4CC[C@H](C)[C@@H]1CC[C@]2(C)O | 43.6 | 77.3

Second part, led by results:

Row | IC50 [2] [µM] | SMILES | viability [1] [%]
9 | 30.1 | C=C(C(=O)O)[C@@H]1CC[C@@]2(C)[C@@H](OC(=O)C(=C)[C@@H]3CC[C@H](C)[C@@H]4CC(=O)C(C)=C4C3)C=C(C(C)=O)[C@@]2(O)C1 | 95.4
10 | 29.8 | C=C(C(=O)O)[C@@H]1CC[C@]2(C)C(=C(C)[C@@H](O)[C@H]3[C@@H]2C[C@]3(C(=O)O)[C@@H]2CC[C@H](C)[C@@H]3CC(=O)C(C)=C3C2)C1 | 94.6
11 | 17 | C=C(C(=O)O)[C@@H]1CC[C@H](C)[C@]23C[C@H](C(C)=C2C1)[C@]1(C3)C(=O)O[C@]23C[C@H]1CC[C@H](C)[C@@H]2CC[C@]3(C)O | 89.1
12 | 23 | C=C(C(=O)O)[C@@H]1CC[C@H](C)C2=C(C1)[C@]1(C)C[C@H]2C[C@@]1(C(=O)O)[C@@H]1CC[C@H](C)[C@@H]2CC(=O)C(C)=C2[C@H]1O | 91.1
13 | 27.3 | C=C(C(=O)O)[C@@H]1CC[C@@]2(C)C=C[C@@H]3[C@@](C)(C[C@@]3(C(=O)O)[C@@H]3CC[C@H](C)[C@@H]4CC(=O)C(C)=C4C3)[C@@H]2C1 | 95.7
